The subject of assay [1] is naive mice. The assay is described as follows: Hot water tail immersion (tail-flick) test. Type of assay: in vivo, mouse. Conditions: for tail-flick time, individual mice: water of 49°C, hr 1, male and female. Here is the method: To compare pain-relevant vocalizations, only short and constant USVs of 37 kHz were counted […]
Tail-Flick immersion test
Naïve wildtype male and female mice (10 weeks of age) were habituated to handling and experimental set up for one week prior to data collection. On the day of data collection, a baseline measurement was performed prior to injection of compounds. One measurement consisted of immersion of 2/3rds of the tail in water (49 °C) for maximum ten seconds, three times with an interval of ten seconds between each measurement using the mean of the three measurements. After baseline, mice were injected s.c. with mPD5 10 μmol/kg mPD5, 10 mg/kg morphine (RH Pharmacy, Denmark, Vnr. 475249), or sterile PBS one hour before undergoing the tail-flick hot water immersion assay again.
Mice were pretreated with 10 μmol/kg mPD5, 10 mg/kg morphine (RH Pharmacy, Denmark, Vnr. 475249), or PBS 45 min before habituation to observation container (glass cylinder surrounded by mirrors on 2 sides) for 15 min. Mice then received an intraplantar injection of 20 µl capsaicin (1.6 ug/paw) (sigma CAS Number:404-86-4, diluted with 1:1:8 solution of tween-20, 70% ethanol, and MilliQ water) in one hind paw and were reintroduced to the observation container. Mice were recorded for three min after i.pl. injection with capsaicin and euthanized the same day. Mice were scored manually for the amount of time spent paw licking within three min after capsaicin administration.
Mice were 10 weeks old at the beginning of the experiment and acclimatized to the animal facility for two weeks after arrival. Male mice were randomized into two groups (n = 8/group) and weighed and injected s.c. once daily (between 3 pm and 4 pm) for 14 days with sterile PBS or 10 μmol/kg mPD5 (diluted in sterile PBS and pH adjusted to 7.4). After 14 days of dosing, the males were paired with female mice in fresh cages, and the number of pubs counted for 35 days (males were removed from the breeding cages after 14 days). Following the 14 days mating period, males were sacrificed by cervical dislocation caudae epidymidis were removed and weighed. Caudae epidymidis were cut into smaller pieces in 2 mL PBS (37 °C) and incubated (37 °C, 5% CO2) for 15 min. Following incubation, the mix was swirled gently, and 0.5 mL of the liquid was transferred to room tempered PBS to achieve a final volume of 1 mL.
Subsequently, sperm count was determined by transferring 50 µL of the sample to a hemocytometer, and each sample was determined in duplicate by an experimenter blinded to drug treatment. Following criteria were assessed: mobility (forward and circular), local tail mobility and total number. Females were weighed on a regular basis from removal of the males […]
Unless otherwise stated, all data were analysed using GraphPad Prism 9.4.1. and presented as mean +-SEM with the significance level set to p < 0.05. For locomotion and elevated plus maze, Ethovision XT 13 (Noldus) was used to track the distance travelled by each animal. For within group analysis (i.e., von Frey experiments), two-way ANOVA followed by Dunnett’s post hoc test was used. For between group analysis of multiple time points (i.e., locomotion experiments), two-way ANOVA was used without post hoc test due to lack of treatment significance in the ANOVA test. For the limb use experiment, data pre versus post treatment was analysed with a Kruskal Wallis test due to the non-parametric nature of the data. […]

In assay [2] the test system is mice, spared nerve injury (SNI) model. Briefly: SNI model, marble-burying test. The assay is classed as in vivo, mouse. The procedure: solution (0.05 mg/kg) injected s.c. 30 min before surgery (10 μL/g). For surgery, mice were anaesthetised with ketamine (100 mg/kg, i.p.) and xylazine (10 mg/kg, i.p.) (volume 10 µL/g) with 100 μL of 1% xylocaine solution infiltrated at the site of the incision. The distal trifurcation of the sciatic nerve was identified, and the tibial and common peroneal branches were ligated with polypropylene nonabsorbable 6-0 sutures (Ethicon) and 1 mm was cut out, leaving the sural branch intact. The wound was closed with sutures, and the animals were allowed to recover and returned to their cages. Two subcutaneous injections of buprenorphine (0.05 mg/kg) were performed with an 8 to 12 hours delay decreasing pain due to the surgery […]
Wounds were closed with surgical glue or medical clips and animals were monitored daily for signs of stress or discomfort, but in all cases recovered uneventfully. […]
For the first experiment with sustained administration of mPD5 (Figure 7C), the mice underwent a baseline von Frey reading as described in the “Mechanically-evoked pain (von Frey).”-section and SNI surgery as described in “Induction of neuropathic pain (SNI model).”-section. […] At 4,5 hours after the 10 μmol/kg mPD5 injection paw withdrawal threshold was measured again followed by a s.c. injection of 2 μmol/kg mPD5 in all animals. […]

Several values for one entry are separate records, joined by “and”; a condition that tells them apart may be missing. Identical values can stand only once.

For `CN1CC[C@]23c4c5ccc(O)c4O[C@H]2[C@@H](O)C=C[C@H]3[C@H]1C5` [morphine], the “tail-flick time, individual mice” value in assay [1] (10 mg/kg, female mice) was 10; in assay [1] (10 mg/kg, male mice) it was 10 (2×) and 6 and 7.

Regarding `CCCCCCCCCCCCCC(=O)N(CCOCCOCCC(=O)N[C@@H](Cc1c[nH]cn1)C(=O)N[C@@H](Cc1c[nH]c2ccccc12)C(=O)N[C@@H](CC(C)C)C(=O)N[C@@H](CCCCN)C(=O)N[C@H](C(=O)O)C(C)C)CCOCCOCCC(=O)N[C@@H](Cc1c[nH]cn1)C(=O)N[C@@H](Cc1c[nH]c2ccccc12)C(=O)N[C@@H](CC(C)C)C(=O)N[C@@H](CCCCN)C(=O)N[C@H](C(=O)O)C(C)C` [mPD5, myristoyl-NPEG4-(HWLKV)2], in assay [2] (1 hour after s.c. 10 μmol/kg), the “marbles buried, individual mice” value was 6 and 7 and 9 and 8 and 3 and 1 and 5. The “effect on SNI-induced decrease in marble burying” value in assay [2] (female mice, s.c. 10 μmol/kg, to the level of the naive mice) is given as “reverted significantly”. Moreover, the “effect on tail-flick latency compared with baseline” value in assay [1] (naive mice, both sexes, s.c. 10 μmol/kg) is on record as “no effect on tail-flick latency”. The “tail-flick time, individual mice” value is 3 and 4 (2×) and 5 in assay [1] (10 umol/kg, female mice); 3 (2×) and 2 and 4 in assay [1] (10 umol/kg, male mice).

Source of the values: paper PMC11530130, “Peripherally restricted PICK1 inhibitor mPD5 ameliorates pain behaviors in murine inflammatory and neuropathic pain models” (JCI Insight, 2024).
